# Reference: US9801856B2, “Composition of a 5-HT2A serotonin receptor modulator useful for the treatment of disorders related thereto” (Arena Pharmaceuticals, Inc., priority 2008, dated 2017)
# “Also recorded” adds a separate entry of the source.
# What was measured:
# [1] = Stability of APD125 in solution; type: physicochemical; details: in solution at 25° C.
# [2] = Aqueous solubility of APD125; type: physicochemical
# [3] = target: T1, 5-HT2A serotonin receptor (Homo sapiens, UniProt P28223); assay: Phase 2 trial: sleep maintenance versus placebo; type: in vivo, humans
# [4] = target: T1, 5-HT2A serotonin receptor; assay: Phase 1 trials: waking EEG; type: in vivo, humans
# [5] = target: T1, 5-HT2A serotonin receptor; assay: 5-HT2A serotonin receptor inverse agonist activity; type: biochemical
# [6] = target: T1, 5-HT2A serotonin receptor; assay: Afternoon nap model of insomnia in normal volunteers; type: in vivo, humans
# [7] = Effect of milling and compression upon APD125 Form I (PXRD); type: physicochemical
# Procedure: Micronized APD125 Form I, was ground using a mortar and pestle, with samples withdrawn at 1-min, 5-min and 10-min time points for PXRD analyses to evaluate the impact of grinding upon the solid-state form of APD125 Form I. PXRD patterns were obtained pre- and post-milling. Additionally, micronized APD125 Form I, was compressed at 2 kp, 5 kp and 10 kp for 1 min per sample using a Carver press. The samples were then removed from the Carver press and lightly broken up using a mortar and pestle, prior to PXRD analysis to evaluate the impact of compression upon the solid-state form of APD125 Form I. PXRD patterns were obtained pre- and post-compression.
# (§1) PXRD measurements were obtained using a Philips (PANalytical) X'Pert PRO theta/theta diffractometer (EQ 0233) equipped with an X'Celerator RTMS detector and utilizing copper Kα radiation, operating at 45 kV and 40 mA. The instrument radius was 239.5 mm, the mask filter was 20 mm, the soller slit was 0.04 radians, and a nickel filter and sample spinning were used during data acquisition. The application and instrument control software used were X'Pert Data Collector®, version 2.0c and XPERT-PRO®, version 1.6, respectively. The samples were scanned from 5° to 40° 2θ in continuous mode, using a step size of 0.0167° 2θ.
# [8] = Methyl cellulose optimization: Form I to Form II conversion in water pastes (PXRD); type: physicochemical
# Procedure: In a small scintillation vial, 152.13 mg of micronized APD125 Form I, was spiked with sufficient deionized water to make a paste; the weight of the water added, 844.60 mg was recorded, and the resulting mixture was stirred using a spatula to obtain a paste. The resulting sample, post-collection of an initial PXRD pattern, was capped, wrapped in tinfoil and stored at 40° C. until the next day, when a second PXRD pattern was obtained.
# Using another small scintillation vial, 2.1183 g of micronized APD125 Form I, was mixed with 3.3619 g of a 0.5% w/v methyl cellulose to obtain a paste, which was immediately sampled for PXRD analysis to verify starting APD125 solid-state form, post-methyl cellulose addition. The remaining sample in the scintillation vial was split into two portions, placed in capped, parafilm-wrapped scintillation vials, which were then wrapped in tinfoil and stored at 40° C. and room temperature, respectively. […]
# APD125 micronized Form I/PVP (1:8) blend, weighing 3.0081 g and containing 0.5% w/w methyl cellulose, was mixed with 3.71277 g of water to form a paste. After sampling the paste for an initial PXRD pattern, the remaining paste was split into two portions, placed in capped, parafilm-wrapped scintillation vials, which were then wrapped in tinfoil and stored at 40° C. and room temperature, respectively. PXRD patterns were collected at initial (t=0), 1-day, 7-day and 21-day time points.
# For each blend, materials were dispensed (minus magnesium stearate) into a glass vial and blended for about 5 minutes. Magnesium stearate was added and the mixture was blended an additional 2 minutes. The final blend was compacted into standard round concave tablets ( 5/16″ diameter) with a total tablet weight of 200 mg and hardness of 10 kp using a Carver press. For each batch of tablets, several were crushed using a mortar and pestle to obtain a fine powder, from which a small sample was taken for PXRD analysis to confirm the initial APD125 polymorphic form. The remaining powder was weighed into a Qorpak® bottle, and ca. 50% w/w deionized water was added. The resulting mixture was stirred using a micro-spatula to wet the powder and form a paste. A Teflon® lid was screwed on tightly, and the prepared samples were stored in a 40° C. oven.
# as §1, with “respectively. The API-based paste samples were” for “respectively. The samples were”, “of 0.0167° 2θ and a counting time of 40.005 seconds. The tablet granulation samples were scanned from 2° to 15° 2θ in continuous mode, using a step size of 0.0167° 2θ and a counting time of 1063.625 s.” for “of 0.0167° 2θ.”
# [9] = target: T1, 5-HT2A serotonin receptor; details: cited from earlier work
# [10] = tested on: JC virus; details: cited from earlier work
# [11] = target: T2, 5-HT2A (Homo sapiens, UniProt P28223); set-up: host or cells: patients, in vivo; details: 24 months of treatment; cited from earlier work
# [12] = target: T2, 5-HT2A; set-up: host or cells: human patients, in vivo; details: humans, lumbar disc herniation; cited from earlier work
# [13] = tested on: 5-HT2 receptor; details: glaucoma patients; cited from earlier work
# [14] = target: T3, 5-HT2A (Rattus norvegicus, UniProt P14842); set-up: host or cells: diabetic rats, in vivo; details: rats, cited from earlier work
# [15] = target: T3, 5-HT2A; set-up: host or cells: diabetic rats, in vivo; details: spontaneously hypertensive rats; cited from earlier work
# [16] = target: T3, 5-HT2A; details: in vivo; cited from earlier work
# T1 sequence (P28223 whole entry): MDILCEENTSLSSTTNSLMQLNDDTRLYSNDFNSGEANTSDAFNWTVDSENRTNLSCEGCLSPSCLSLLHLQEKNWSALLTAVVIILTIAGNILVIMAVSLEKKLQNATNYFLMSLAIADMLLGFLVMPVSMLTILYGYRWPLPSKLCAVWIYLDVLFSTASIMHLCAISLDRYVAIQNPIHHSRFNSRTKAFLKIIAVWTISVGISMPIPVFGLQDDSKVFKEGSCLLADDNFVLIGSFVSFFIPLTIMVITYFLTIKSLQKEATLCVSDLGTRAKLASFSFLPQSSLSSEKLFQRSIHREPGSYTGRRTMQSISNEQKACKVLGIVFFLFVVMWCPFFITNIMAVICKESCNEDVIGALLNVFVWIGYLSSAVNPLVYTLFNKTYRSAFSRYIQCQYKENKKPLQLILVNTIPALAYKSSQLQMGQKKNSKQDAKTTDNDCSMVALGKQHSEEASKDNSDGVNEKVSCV
# T3 sequence (P14842 whole entry): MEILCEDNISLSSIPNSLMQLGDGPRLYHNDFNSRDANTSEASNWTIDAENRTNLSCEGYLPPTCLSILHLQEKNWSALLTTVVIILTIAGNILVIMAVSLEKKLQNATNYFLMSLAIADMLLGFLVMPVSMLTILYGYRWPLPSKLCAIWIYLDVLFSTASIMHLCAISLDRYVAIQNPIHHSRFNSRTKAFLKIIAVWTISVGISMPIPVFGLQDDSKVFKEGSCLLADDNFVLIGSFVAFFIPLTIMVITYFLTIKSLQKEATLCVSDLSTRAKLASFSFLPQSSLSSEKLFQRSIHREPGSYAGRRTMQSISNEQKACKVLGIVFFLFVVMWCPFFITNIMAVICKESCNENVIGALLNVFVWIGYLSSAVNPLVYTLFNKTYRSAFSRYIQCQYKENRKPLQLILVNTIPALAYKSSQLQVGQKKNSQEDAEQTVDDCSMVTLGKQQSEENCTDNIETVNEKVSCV
# T2 sequence (P28223 whole entry): as the sequence (P28223 whole entry) above
smiles,measurement,setting,value
"COc1ccc(NC(=O)Nc2ccc(F)cc2F)cc1-c1c(Br)cnn1C [APD125, 1-[3-(4-bromo-2-methyl-2H-pyrazol-3-yl)-4-methoxy-phenyl]-3-(2,4-difluoro-phenyl)-urea]",stability in solution,[1],somewhat labile
same,solubility,"[2]; aqueous buffer, phosphate buffer (about pH 7)",≤ 10 µg/mL
same,solubility,"[2]; deionized water, water",≤ 10 µg/mL
same,solubility,"[2]; saline (about 0.9% NaCl solution), saline or isotonic",≤ 10 µg/mL
same,solubility,"[2]; simulated gastric fluid, 0.01 N HCl (about pH 2)",≤ 10 µg/mL
same,measurements of sleep maintenance,[3]; compared to placebo,statistically significant improvements
same,next day cognitive effects,[3]; in vivo,without any limiting next day cognitive effects
same,dose of maximal effects on waking EEG,[4],40 to 80 mg
same,effects on waking EEG,[4],vigilance-lowering effects
same,time of peak effects after dosing,[4]; waking EEG,2 to 4 h
same,activity at the 5-HT2A serotonin receptor,[5],potent and selective 5-HT2A serotonin receptor inverse agonist
same,REM sleep,"[6]; human, in vivo",at the expense of REM sleep
same,"microarousals, number of sleep stage shifts and number of awakenings after sleep onset","[6]; human, in vivo",decreased
same,sleep onset latency,"[6]; human, in vivo",not decreased
same,slow wave sleep and associated parameters,[6]; primarily during the early part of sleep,increased slow wave sleep and associated parameters in a dose-dependent manner
"COc1ccc(NC(=O)Nc2ccc(F)cc2F)cc1-c1c(Br)cnn1C [APD125 Form I, 1-[3-(4-bromo-2-methyl-2H-pyrazol-3-yl)-4-methoxy-phenyl]-3-(2,4-difluoro-phenyl)-urea]",PXRD pattern after compression,"[7]; compressed at 2 kp, 5 kp and 10 kp",all substantially comprise Form I; also recorded: consistent with APD125 Form I
same,PXRD pattern after grinding,"[7]; mortar and pestle for 1 minute, 5 minutes and 10 minutes, listed as micronized APD125 Form I",all substantially comprise Form I; also recorded: No significant changes in the PXRD patterns were observed
same,polymorphic form by PXRD,"[8]; aqueous 0.5% w/w methyl cellulose at 40° C. after 10 days (FIG. 8, text)",no evidence of conversion to Form II
same,polymorphic form by PXRD,"[8]; aqueous 0.5% w/w methyl cellulose, room temperature and 40° C. after 16 days (FIG. 8 legend)",substantially converted to Form II
same,polymorphic form by PXRD,[8]; paste in water alone at 40° C.,converted to Form II within 24 hours
same,polymorphic form by PXRD,[8]; paste in water alone at room temperature and 40° C. after 24 h (FIG. 9 legend),substantially converted to Form II
same,polymorphic form by PXRD,"[8]; suspended in aqueous 0.5% w/w methyl cellulose, 21 days at room temperature",did not convert to Form II
Cc1nc2sccn2c(=O)c1CCN1CCC(=C(c2ccc(F)cc2)c2ccc(F)cc2)CC1 [ritanserin],activity at 5-HT2A,[9],inverse agonist activity
same,JC virus infection of human glial cells,[10],inhibited
COc1cccc(CCc2ccccc2OCC(CN(C)C)OC(=O)CCC(=O)O)c1 (stereo not shown) [sarpogrelate],urinary albumin excretion level,[11],significantly reduced
same,"lower back pain, leg pain and numbness associated with sciatica",[12],effective treatment
same,IOP,[13],significantly lower IOP
same,thermal induced pain,[14]; intraperitoneal administration,significant analgesic effect
same,inflammatory pain,[14]; intrathecal or intraperitoneal administration,significant analgesic effect
O=C(c1ccc(F)cc1)C1CCN(CCn2c(=O)[nH]c3ccccc3c2=O)CC1 [ketanserin],activity at 5-HT2A,[9],inverse agonist activity
same,JC virus infection of human glial cells,[10],inhibited
same,IOP,[13],significantly lower IOP
same,blood pressure,[15],stabilize blood pressure
same,protection during heatstroke,[16],"protect against circulatory shocks, intracranial hypertension and cerebral ischemia during heatstroke"
